Measurements reported in patent publication US12590056B2, “IGF2BP2 inhibitors and uses thereof” (CITY OF HOPE, priority 2020, dated 2026).
“Also recorded” adds a separate entry of the source.

Key:
IGF2BP2 [1] = molecular target: T1, IGF2BP2 (Homo sapiens, UniProt Q9Y6M1); assay: Biological assays of IGF2BP2 inhibition (purified fractions and synthesized compounds); settings: for effectiveness, synthesized compound: compounds synthesized based on the predicted structures
Text: (§1) Virtual screening of library compounds and lead compound identification. NCI DTP library of approximately 260,000 compounds was screened. Screening included docking on the KH3 domain of IGF2BP2. Over 500 compounds were identified for experimental validation. NSC69557, termed CWI1, was identified as a top hit. Mass spectrometry (MS) identified CWI1 as a mixture including three major peaks: CWI1, CWI1-1, and CWI1-2. Their structures were predicted based on nuclear magnetic resonance (NMR) and MS data. The compound peaks for the predicted CWI1-1 and CWI1-2 were purified by HPLC. […] CWI1, CWI1-1, and CWI1-2 were synthesized based on the predicted structures. […] Thus, the structures of CWI1-1 and CWI1-2 were confirmed.

[2] = test system: primary murine MLL-AF9 AML cells; assay: Engraftment of AML cells in bone marrow transplant (BMT) recipient mice; assay type: in vivo; settings: 5 mg/kg, i.v., daily for 7 days from ten days after BMT; peripheral blood 3 days after last treatment, flow cytometry
Protocol: (§2) FIGS. 8A-8B. […] FIG. 8A: Ten days after BMT with primary murine MLL-AF9 AML cells, recipient mice were given vehicle control (CT) or CWI1-2 daily for 7 days (5 mg/kg, i.v.). Peripheral blood was taken 3 days after the last treatment and assessed by flow cytometry.

[3] = test system: human acute myeloid leukemia (AML) cells; assay: Anti-cancer activity in vitro (viability of human AML cells); assay type: cell-based
Text: FIGS. 5A-5E. IC50 of the lead compound CWI1-2 in human acute myeloid leukemia (AML) cells. FIG. 5A: Relative viability vs. CWI1-2 concentration in healthy bone marrow #1. FIG. 5B: Relative viability vs. CWI1-2 concentration in healthy bone marrow #2. FIG. 5C: Relative viability vs. CWI1-2 concentration in AML blast cells collected from a primary AML patient. FIG. 5D: Relative survival vs. log10 concentration of CWI1-2 in IGF2BP2-high AML cell lines. FIG. 5E: Relative survival vs. log10 concentration of CWI1-2 in IGF2BP2-low AML cell lines.

IGF2BP2 target genes = assay: Expression of IGF2BP2 target genes and of IGF2BP2 after treatment; assay type: cell-based; settings: after compound treatment
Text: (§3) FIGS. 4A-4B. CWI1-2 inhibits binding of IGF2BP2 to m^6A-modified RNA and suppresses expression of the oncogenic targets of IGF2BP2.

[4] = Body weight of BMT recipient mice; assay type: in vivo; settings: 5 mg/kg, i.v., daily for 7 days
Protocol: as §2

[5] = molecular target: IGF2BP2 binding to m^6A-modified single strand RNA (SS-m^6A) (Homo sapiens, UniProt Q9Y6M1); assay: RNA pull-down assay; assay type: biochemical
Text: as §3

[6] = test system: IGF2BP2-low acute leukemia cell lines; assay: Apoptosis in IGF2BP2-low acute leukemia cell lines; assay type: cell-based, human; settings: 24-hour treatment
Text: (§4) FIGS. 6A-6B. Effects of CWI1-2 on apoptosis in human acute myeloid leukemia (AML) cells.

IGF2BP2 [7] = molecular target: T1, IGF2BP2; assay: Drug Affinity Responsive Target Stability (DARTS) assay; assay type: binding; settings: protection from degradation by proteases
Protocol: FIG. 3. […] Drug Affinity Responsive Target Stability (DARTS) assay was performed. The principle of the assay is binding of compound to proteins protects proteins from degradation by proteases.

[8] = test system: IGF2BP2-low acute leukemia cell lines; assay: Cell differentiation in IGF2BP2-low acute leukemia cell lines; assay type: cell-based; settings: 24-hour treatment
Text: (§5) FIGS. 7A-7B. Effects of CWI1-2 on cell differentiation in acute myeloid leukemia (AML).

IGF2BP2 [9] = molecular target: T1, IGF2BP2; assay: Cellular Thermal Shift Assay (CETSA); assay type: binding; settings: CETSA also run for IGF2BP1 and IGF2BP3; western blot
Protocol: FIGS. 2A-2C. […] Cellular Thermal Shift Assay (CETSA) was conducted. The principle of the assay is unbound proteins denature and precipitate at elevated temperatures, while drug-bound proteins tend to remain in solution. Cells are seeded and treated. Cell pellets are washed, harvested, and heated. Cells are lysed and centrifuged. Western blot is performed. FIG. 2A: Results of CETSA for IGF2BP2. FIG. 2B: Results of CETSA for IGF2BP1. FIG. 2C: Results of CETSA for IGF2BP3.

[10] = test system: IGF2BP2-high AML cell lines; assay: Apoptosis in IGF2BP2-high AML cell lines; assay type: cell-based, human; settings: 24-hour treatment
Text: as §4

[11] = test system: IGF2BP2-high AML cell lines; assay: Cell differentiation in IGF2BP2-high AML cell lines; assay type: cell-based, human; settings: 24-hour treatment
Text: as §5

KH3 domain of IGF2BP2 = molecular target: T2, KH3 domain of IGF2BP2 (Homo sapiens, UniProt Q9Y6M1); assay: Virtual screening of NCI DTP library (docking) followed by experimental validation; settings: approximately 260,000 compounds screened, over 500 taken to experimental validation
T2 construct: Screening included docking on the KH3 domain of IGF2BP2
Text: as §1

T1 sequence (Q9Y6M1 whole entry, the tested form may be a part): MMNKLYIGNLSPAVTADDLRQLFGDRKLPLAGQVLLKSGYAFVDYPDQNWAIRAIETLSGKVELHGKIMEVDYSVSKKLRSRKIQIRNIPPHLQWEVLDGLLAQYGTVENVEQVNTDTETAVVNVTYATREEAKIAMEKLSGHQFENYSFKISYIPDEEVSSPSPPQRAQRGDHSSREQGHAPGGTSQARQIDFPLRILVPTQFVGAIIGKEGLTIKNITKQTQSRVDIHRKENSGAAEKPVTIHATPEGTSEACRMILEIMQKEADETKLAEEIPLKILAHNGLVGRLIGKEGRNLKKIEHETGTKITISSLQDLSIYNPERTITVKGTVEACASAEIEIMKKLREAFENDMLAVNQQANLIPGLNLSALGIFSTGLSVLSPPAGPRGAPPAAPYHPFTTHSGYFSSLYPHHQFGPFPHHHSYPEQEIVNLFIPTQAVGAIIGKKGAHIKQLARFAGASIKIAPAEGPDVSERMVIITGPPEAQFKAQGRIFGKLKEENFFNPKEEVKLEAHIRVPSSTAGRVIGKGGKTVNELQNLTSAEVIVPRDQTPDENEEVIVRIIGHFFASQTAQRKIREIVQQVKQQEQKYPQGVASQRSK
Chain of IGF2BP2 binding to m^6A-modified single strand RNA (SS-m^6A) (Q9Y6M1 whole entry): as the sequence (Q9Y6M1 whole entry, the tested form may be a part) above
T2 sequence (Q9Y6M1 427-492 limits assumed): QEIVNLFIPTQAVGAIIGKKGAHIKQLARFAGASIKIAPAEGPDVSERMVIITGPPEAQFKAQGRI

Row | SMILES | effectiveness, synthesized compound (IGF2BP2 [1]) | engraftment of AML cells in BMT recipient mice [2] | anti-cancer activity in vitro [3] | IGF2BP2 expression (IGF2BP2 target genes) | expression of IGF2BP2 target genes (IGF2BP2 target genes) | effect on body weight of recipient mice [4] | binding of IGF2BP2 to m^6A-modified RNA in the presence of compound [5] | apoptosis [6] | binding to IGF2BP2 (DARTS) (IGF2BP2 [7]) | cell differentiation [8] | binding to IGF2BP2 (CETSA) (IGF2BP2 [9]) | activity as inhibitor of IGF2BP2, HPLC-purified fraction (IGF2BP2 [1]; fractions purified by HPLC from the NSC69557 mixture) | apoptosis [10] | cell differentiation [11] | hit ranking in library screening (KH3 domain of IGF2BP2)
1 | NN/C(=N\N=C\c1cc(Cl)ccc1O)N/N=C\c1cc(Cl)ccc1O [CWI1-1] | effective | – | – | – | – | – | – | – | – | – | – | – | – | – | –
2 | Oc1ccc(Cl)cc1/C=N\N/C(=N/N=C/c1cc(Cl)ccc1O)N/N=C/c1cc(Cl)ccc1O [CWI1-2] | much more effective | inhibits engraftment; also recorded: remarkably inhibit engraftment | potent anti-cancer activities in vitro at nanomolar concentrations; also recorded: potent anti-cancer efficacy | without affecting IGF2BP2 expression | reduces expression of IGF2BP2 target genes; also recorded: suppressing expression of its oncogenic targets such as MYC oncogene | little effect on body weight | decreased binding of IGF2BP2 to m^6A-modified single strand RNA (SS-m^6A); also recorded: prevent IGF2BP2 from binding to its mRNA targets; also recorded: specifically inhibits binding of IGF2BP2 to its mRNA targets with m^6A modification | much less likely | direct and preferential binding | much less likely | direct and preferential binding; also recorded: specifically binds to IGF2BP2 | most active inhibitor of IGF2BP2 | induces remarkable apoptosis; also recorded: significantly promoted | induces remarkable cell differentiation; also recorded: significantly promoted | –
3 | N/C(=N\N=C\c1cc(Cl)ccc1O)N/N=C\c1cc(Cl)ccc1O [CWI1] | less effective | – | – | – | – | – | – | – | – | – | – | – | – | – | top hit
